Source: US10111435B2, “Herbicidal compositions containing N-(1,3,4-oxadiazol-2-yl)-aryl carboxylic acid amides” (BAYER CROPSCIENCE AKTIENGESELLSCHAFT, priority 2013, dated 2018)

Tests used:
Format in all cases: in vivo
[1] = tested on: Polygonum convolvulus (POLCO); assay: greenhouse post-emergence herbicidal efficacy against POLCO
Description: (§1) All trials whose results are shown were conducted in a greenhouse by the methodology specified below. The effect of the inventive herbicidal compositions was examined on the following harmful plants 14 and 21 days after application:
(§2) Echinochloa crus-galli (ECHCG), Eleusine indica (ELEIN), Setaria viridis (SETVI), Amaranthus retroflexus (AMARE), Chenopodium album (CHEAL), Kochia scoparia (KCHSC), Solanum nigrum (SOLNI), Avena fatua (AVEFA), Bromus sterilis (BROST), Lolium multiflorum (LOLMU), Phalaris minor (PHAMI), Poa annua (POAAN), Galium aparine (GALAP), Matricaria inodora (MATIN) and Polygonum convolvulus (POLCO).
(§3) The harmful plant seeds were sown in pots (diameter 8 cm) with sandy loam soil and germinated under optimal conditions. The inventive herbicidal compositions or the active ingredients alone were applied post-emergence to the planted pots with a spray volume of 300 L/ha. The trial was conducted in a greenhouse under optimum growth conditions. The herbicidal effects were assessed visually by comparison of untreated and treated plants. The percentages mean: 0%=no effects, 100%=the plants die off completely).
(§4) The abbreviations mean: • a.i.=active ingredient • E^C=expected value according to Colby (E^C=A+B−A×B/100) • Diff: =difference (%) of measured value from expected value (%) (measured value minus expected value)
(§5) Assessment: • measured value E is greater than E^C:->synergism (+ diff.) • measured value E equals E^C:->additive effect • measured value E is smaller than E^C:->antagonism(− diff.)

Poa annua (POAAN) = assay: greenhouse post-emergence herbicidal efficacy against POAAN; conditions: 14 days after application; 200 g of a.i./ha
Description: as §1, §2, §3, §4, §5

[2] = tested on: Matricaria inodora (MATIN); assay: greenhouse post-emergence herbicidal efficacy against MATIN; conditions: 21 days after application; g of a.i./ha: A1-34 50, iodosulfuron-methyl-sodium 0.5
Description: as §1, §2, §3, §4, §5

Galium aparine (GALAP) = assay: greenhouse post-emergence herbicidal efficacy against GALAP
Description: as §1, §2, §3, §4, §5

Solanum nigrum (SOLNI) = assay: greenhouse post-emergence herbicidal efficacy against SOLNI; conditions: 21 days after application
Description: as §1, §2
as §3, with “completely). The percentages are used to calculate interactions between individual treatments and combination treatments according to S. R. Colby, Weeds 15, pages 20 to 22 (1967).” for “completely).”
as §4, §5

[3] = tested on: Chenopodium album (CHEAL); assay: greenhouse post-emergence herbicidal efficacy against CHEAL
Description: as §1, §2
as §3, with “completely). The percentages are used to calculate interactions between individual treatments and combination treatments according to S. R. Colby, Weeds 15, pages 20 to 22 (1967).” for “completely).”
as §4, §5

Avena fatua (AVEFA) = assay: greenhouse post-emergence herbicidal efficacy against AVEFA; conditions: 21 days after application; g of a.i./ha: A1-34 200, iodosulfuron-methyl-sodium 2
Description: as §1, §2, §3, §4, §5

Phalaris minor (PHAMI) = assay: greenhouse post-emergence herbicidal efficacy against PHAMI; conditions: 14 days after application; 200 g of a.i./ha
Description: as §1, §2, §3, §4, §5

[4] = tested on: Lolium multiflorum (LOLMU); assay: greenhouse post-emergence herbicidal efficacy against LOLMU; conditions: 14 days after application
Description: as §1, §2, §3, §4, §5

[5] = tested on: Amaranthus retroflexus (AMARE); assay: greenhouse post-emergence herbicidal efficacy against AMARE
Description: as §1, §2
as §3, with “completely). The percentages are used to calculate interactions between individual treatments and combination treatments according to S. R. Colby, Weeds 15, pages 20 to 22 (1967).” for “completely).”
as §4, §5

Bromus sterilis (BROST) = assay: greenhouse post-emergence herbicidal efficacy against BROST
Description: as §1, §2, §3, §4, §5

Setaria viridis (SETVI) = assay: greenhouse post-emergence herbicidal efficacy against SETVI
Description: as §1, §2
as §3, with “completely). The percentages are used to calculate interactions between individual treatments and combination treatments according to S. R. Colby, Weeds 15, pages 20 to 22 (1967).” for “completely).”
as §4, §5

DIGSA = assay: greenhouse post-emergence herbicidal efficacy against DIGSA
Description: as §1
as §3, with “completely). The percentages are used to calculate interactions between individual treatments and combination treatments according to S. R. Colby, Weeds 15, pages 20 to 22 (1967).” for “completely).”
as §4, §5

Eleusine indica (ELEIN) = assay: greenhouse post-emergence herbicidal efficacy against ELEIN; conditions: for pest or weed control at 10 g/ha: 10 g of a.i./ha; for pest or weed control at 40 g/ha: 40 g of a.i./ha
Description: as §1, §2
as §3, with “completely). The percentages are used to calculate interactions between individual treatments and combination treatments according to S. R. Colby, Weeds 15, pages 20 to 22 (1967).” for “completely).”
as §4, §5

[6] = tested on: Echinochloa crus-galli (ECHCG); assay: greenhouse post-emergence herbicidal efficacy against ECHCG
Description: as §1, §2
as §3, with “completely). The percentages are used to calculate interactions between individual treatments and combination treatments according to S. R. Colby, Weeds 15, pages 20 to 22 (1967).” for “completely).”
as §4, §5

Kochia scoparia (KCHSC) = assay: greenhouse post-emergence herbicidal efficacy against KCHSC; conditions: 21 days after application
Description: as §1, §2
as §3, with “completely). The percentages are used to calculate interactions between individual treatments and combination treatments according to S. R. Colby, Weeds 15, pages 20 to 22 (1967).” for “completely).”
as §4, §5

[7] = 21 days after application, g of a.i./ha: A1-34 50, iodosulfuron-methyl-sodium 0.5
[8] = 21 days after application, g of a.i./ha: A1-34 50, iodosulfuron-methyl-sodium 2
[9] = 14 days after application, 50 g of a.i./ha
[10] = 21 days after application, g of a.i./ha: A1-34 200, iodosulfuron-methyl-sodium 2
[11] = 21 days after application, 25 g of a.i./ha
[12] = 21 days after application, 100 g of a.i./ha
[13] = 14 days after application, 40 g of a.i./ha
[14] = 14 days after application, 10 g of a.i./ha
[15] = 21 days after application, 40 g of a.i./ha
[16] = Eleusine indica, post-emergence, 336 h, 14 days after application
[17] = Eleusine indica, post-emergence, 504 h, 21 days after application
[18] = 14 days after application, 400 g of a.i./ha
[19] = 14 days after application, 100 g of a.i./ha
[20] = 21 days after application, 400 g of a.i./ha
[21] = 21 days after application, 2 g of a.i./ha

Cc1c(C(=O)Nc2nnc(C3CC3)o2)ccc(C(F)(F)F)c1[S+](C)[O-] (stereo not drawn) [A1-34]
Efficacy ([1]; 14 days after application, 200 g of a.i./ha): 30% | Efficacy [1, 7]: 0% | Efficacy [1, 8]: 0% | Efficacy (Poa annua (POAAN)): 85% | Efficacy [2]: 50% | Efficacy (Galium aparine (GALAP); [9]): 50% | Efficacy (Galium aparine (GALAP); [7]): 20% | Efficacy (Galium aparine (GALAP); [10]): 40% | Efficacy (Solanum nigrum (SOLNI); 25 g of a.i./ha): 10% | Efficacy [3, 11]: 70% | Efficacy (Avena fatua (AVEFA)): 5% | Efficacy (Phalaris minor (PHAMI)): 60% | Efficacy ([4]; 50 g of a.i./ha): 5% | Efficacy ([4]; 200 g of a.i./ha): 30% | Efficacy [5, 11]: 30% | Efficacy [5, 12]: 50% | Efficacy (Bromus sterilis (BROST); [9]): 10% | Efficacy (Bromus sterilis (BROST); [8]): 15% | Efficacy (Bromus sterilis (BROST); [10]): 35%

COc1c(Cl)ccc(Cl)c1C(=O)O [dicamba]
Efficacy (Setaria viridis (SETVI); [13]): 0% | Efficacy (Setaria viridis (SETVI); [14]): 0% | Efficacy (Setaria viridis (SETVI); 21 days after application, 10 g of a.i./ha): 0% | Efficacy (Setaria viridis (SETVI); [15]): 0% | Efficacy (DIGSA; [13]): 0% | Efficacy (DIGSA; [15]): 0% | pest or weed control at 10 g/ha (Eleusine indica (ELEIN); [16]): 10% | pest or weed control at 40 g/ha (Eleusine indica (ELEIN); [16]): 10% | pest or weed control at 10 g/ha (Eleusine indica (ELEIN); [17]): 0% | pest or weed control at 40 g/ha (Eleusine indica (ELEIN); [17]): 0% | Efficacy [3, 14]: 50% | Efficacy [5, 13]: 65% | Efficacy [5, 15]: 65%

N#Cc1cc(Br)c(O)c(Br)c1 [bromoxynil]
Efficacy (Setaria viridis (SETVI); [18]): 0% | Efficacy (Setaria viridis (SETVI); [19]): 0% | Efficacy (Setaria viridis (SETVI); [12]): 0% | Efficacy (Setaria viridis (SETVI); [20]): 0% | Efficacy (DIGSA; [18]): 0% | Efficacy (DIGSA; [19]): 0% | Efficacy (DIGSA; [12]): 0% | Efficacy (DIGSA; [20]): 0% | pest or weed control at 100 g/ha (Eleusine indica (ELEIN); Eleusine indica, post-emergence, 336 h, 14 days after application, 100 g of a.i./ha): 0% | pest or weed control at 400 g/ha (Eleusine indica (ELEIN); Eleusine indica, post-emergence, 336 h, 14 days after application, 400 g of a.i./ha): 0% | Efficacy [3, 18]: 85% | Efficacy [3, 20]: 75% | Efficacy [5, 19]: 40% | Efficacy [6, 18]: 0% | Efficacy [6, 19]: 0% | Efficacy [6, 20]: 0%

COc1c(Cl)ccc(-c2cc(N)c(Cl)c(C(=O)O)n2)c1F [halauxifen]
Efficacy (Setaria viridis (SETVI); [21]): 0% | Efficacy (Eleusine indica (ELEIN); 21 days after application, 0.5 g of a.i./ha): 0% | Efficacy (Eleusine indica (ELEIN); [21]): 0% | Efficacy (Solanum nigrum (SOLNI); 0.5 g of a.i./ha): 50% | Efficacy (Kochia scoparia (KCHSC); 0.5 g of a.i./ha): 20% | Efficacy (Kochia scoparia (KCHSC); 2 g of a.i./ha): 30% | Efficacy ([6]; 14 days after application, 0.5 g of a.i./ha): 0% | Efficacy ([6]; 14 days after application, 2 g of a.i./ha): 10% | Efficacy [6, 21]: 20%
